Measurements taken from patent publication US12403128B2, “Compositions and methods for blocking sodium channels” (University of Virginia Patent Foundation, priority 2017, dated 2025).
Values after ≈ are worked out from the molar mass of the structure shown. Structures can show the parent of a compound that is named as a salt.

Experiments:
[1] = biological target: T1, Nav1.6 (Homo sapiens, UniProt Q9UQD0); test: % block of Nav1.6 at 100 μM and IC50 (NaV1.6); assay type: cell-based; conditions: for inhibition at 100 µM: 100 μM compound
Experimental: Evaluation of Compounds for % Block of Nav1.6 at 100 μM
Compounds of the present invention were tested in an assay for % block of Nav1.6 at a concentration of 100 μM compound. Table 1 also indicates the melting point ranges for some compounds.
Some such compounds correspond to a compound of Formula III, wherein R9 is substituted with a halogen, a nitro or a CF3 group. In comparing MV1089, MV1090 and MV1091, it is shown that compounds of Formula III where R3 is H result in higher % block than when R3 is substituted. e.g., by OCH3. In comparing MV1066, MV1084, MV1085, MV1086, MV1087 and MV1088, it is shown that compounds of Formula III where R9 is halogen, a nitro or a CF3 group result in higher % block than when R9 is OCH3, COOH or CH3.

[2] = biological target: T2, rat NaV1.6 sodium channels (Rattus norvegicus, UniProt O88420); test: Dose response on rat NaV1.6 channels in HEK293 cells; assay type: cell-based; conditions: rat Nav1.6 channel
T2 construct: expressed in transfected cells; host or cells: HEK293
Text: Evaluation of Dose Response and Activation Response Compounds on Rat NaV1.6 Channels in Human Embryonic Kidney Cells (HEK293).

[3] = biological target: NaV1.6 sodium channels (Homo sapiens, UniProt Q9UQD0); test: State-dependent inhibition: steady state inactivation, use-dependent block; assay type: cell-based; conditions: for use-dependent block: 20 Hz
Text: Evaluation of Compounds as State-Dependent Inhibitors
Use dependent block is an important characteristic for AED activity since it allows increased inhibition of sodium channels during increased neuronal activity as is observed during seizures.

[4] = biological target: T1, Nav1.6; test: High-throughput flux assay, Nav1.6; assay type: cell-based; conditions: human isoform;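 note: IC50 from the flux assay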
Experimental: (§1) Evaluation of Compounds on Human Isoforms Using a High-Throughput Flux Assay
(§2) Compounds were tested using a high-throughput flux assay across Nav1.5, Nav1.6 and Nav1.7.

[5] = biological target: T3, NaV1.5 (Homo sapiens, UniProt Q14524); test: High-throughput flux assay, NaV1.5; assay type: cell-based; conditions: human isoform;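 note: IC50 from the flux assay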
Experimental: as §1, §2

[6] = biological target: T4, NaV1.7 (Homo sapiens, UniProt Q15858); test: High-throughput flux assay, NaV1.7; assay type: cell-based; conditions: human isoform;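 note: IC50 from the flux assay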
Experimental: as §1, §2

[7] = biological target: T1, Nav1.6; test: Qube assay, NaV1.6; assay type: cell-based; conditions: human isoform; read-out: Qube EP IC50 NaV1.6
Experimental: (§3) Evaluation of Compounds on Human Isoforms Using Qube Assay.
(§4) Compounds were tested using a Qube assay across NaV1.5, NaV1.6 and NaV1.7.

[8] = biological target: T3, NaV1.5; test: Qube assay, NaV1.5; assay type: cell-based; conditions: human isoform; read-out: Qube EP IC50 NaV1.5
Experimental: as §3, §4

[9] = biological target: T4, NaV1.7; test: Qube assay, NaV1.7; assay type: cell-based; conditions: human isoform; read-out: Qube EP IC50 NaV1.7
Experimental: as §3, §4

[10] = system: knock-in mouse carrying the human N1768D gain of function NaV1.6 mutation (spontaneous seizures); test: Seizure suppression in NaV1.6 mutation knock-in mouse model; assay type: in vivo; conditions: 100 mg/kg
Experimental: In Vivo Evaluation for Seizure Suppression in a Human Gain of Function NaV1.6 Mutation Knock-In Mouse Model.
Compounds were tested in vivo for seizure suppression in a knock-in mouse carrying the human N1768D gain of function NaV1.6 mutation. These knock-in mice experience spontaneous seizures. All test compounds were evaluated at 100 mg/kg.

[11] = Solubility; assay type: physicochemical
[12] = Chemical stability; assay type: physicochemical; conditions: after 24 h at pH 7.4
[13] = biological target: CYP3A4 (Homo sapiens, UniProt P08684); test: Metabolic stability (CYP3A4); assay type: in vitro ADME; conditions: CYP3A4, 1 hr
[14] = system: maximal electroshock (MES) seizures; test: MES test, comparison compounds (species not stated); assay type: in vivo
Text: The MES is a model for generalized tonic-clonic seizures and provides an indication of a compound's ability to prevent seizure spread when all neuronal circuits in the brain are maximally active. These seizures are highly reproducible and are electrophysiologically consistent with human seizures. For an MES test, a drop of anesthetic/electrolyte solution (0.5% tetracaine hydrochloride in 0.9% saline) is applied to the eyes of each animal prior to placement of corneal electrodes Electrical stimulus in the MES test may be 50 mA, 60 Hz, for mice and 150 mA, 60 Hz, for rats delivered for 0.2 s. Abolition of the hindleg tonic extensor component of the seizure was used as the endpoint. Mice may be initially tested at various intervals following various doses, e.g., 30, 100 and 300 mg/kg of test compound given by intraperitoneal (IP) injection while rats are initially screened at a fixed dose of 30 mg/kg

[15] = system: Metrazol-induced clonic seizures; test: scM test, comparison compounds (species not stated); assay type: in vivo
Experimental: Subcutaneous injection of the convulsant Metrazol produces clonic seizures in laboratory animals. […] Animals may be pretreated with various doses of the test compound given by ip injection. At a previously determined TPE (time to peak) of the test compound, the dose of Metrazol which will induce convulsions in 97% of animals (CD97:85 mg/kg mice) may be injected into a loose fold of skin in the midline of the neck. The animals may be placed in isolation cages to minimize stress and observed for the next 30 min for the presence or absence of a seizure. An episode of clonic spasms, approximately 3-5 seconds, of the fore and/or hindlimbs, jaws, or vibrissae may be taken as the endpoint. […] The scM test represents acute animal seizures.

[16] = system: 6 Hz psychomotor seizures; test: 6 Hz test, comparison compounds (species not stated); assay type: in vivo; conditions: species and current not stated
Experimental: Compounds were tested using a 6 Hz psychomotor seizure test. […] For example, both the MES and scM models are insensitive to levetiracetam, a compound considered potentially useful in the management of refractory seizures. […] Thus, the 6 Hz test can serve as a therapy resistant screening paradigm of acute seizure activity.

[17] = Tox, comparison compounds (species not stated); assay type: in vivo

T4 sequence (Q15858 whole entry, canonical isoform): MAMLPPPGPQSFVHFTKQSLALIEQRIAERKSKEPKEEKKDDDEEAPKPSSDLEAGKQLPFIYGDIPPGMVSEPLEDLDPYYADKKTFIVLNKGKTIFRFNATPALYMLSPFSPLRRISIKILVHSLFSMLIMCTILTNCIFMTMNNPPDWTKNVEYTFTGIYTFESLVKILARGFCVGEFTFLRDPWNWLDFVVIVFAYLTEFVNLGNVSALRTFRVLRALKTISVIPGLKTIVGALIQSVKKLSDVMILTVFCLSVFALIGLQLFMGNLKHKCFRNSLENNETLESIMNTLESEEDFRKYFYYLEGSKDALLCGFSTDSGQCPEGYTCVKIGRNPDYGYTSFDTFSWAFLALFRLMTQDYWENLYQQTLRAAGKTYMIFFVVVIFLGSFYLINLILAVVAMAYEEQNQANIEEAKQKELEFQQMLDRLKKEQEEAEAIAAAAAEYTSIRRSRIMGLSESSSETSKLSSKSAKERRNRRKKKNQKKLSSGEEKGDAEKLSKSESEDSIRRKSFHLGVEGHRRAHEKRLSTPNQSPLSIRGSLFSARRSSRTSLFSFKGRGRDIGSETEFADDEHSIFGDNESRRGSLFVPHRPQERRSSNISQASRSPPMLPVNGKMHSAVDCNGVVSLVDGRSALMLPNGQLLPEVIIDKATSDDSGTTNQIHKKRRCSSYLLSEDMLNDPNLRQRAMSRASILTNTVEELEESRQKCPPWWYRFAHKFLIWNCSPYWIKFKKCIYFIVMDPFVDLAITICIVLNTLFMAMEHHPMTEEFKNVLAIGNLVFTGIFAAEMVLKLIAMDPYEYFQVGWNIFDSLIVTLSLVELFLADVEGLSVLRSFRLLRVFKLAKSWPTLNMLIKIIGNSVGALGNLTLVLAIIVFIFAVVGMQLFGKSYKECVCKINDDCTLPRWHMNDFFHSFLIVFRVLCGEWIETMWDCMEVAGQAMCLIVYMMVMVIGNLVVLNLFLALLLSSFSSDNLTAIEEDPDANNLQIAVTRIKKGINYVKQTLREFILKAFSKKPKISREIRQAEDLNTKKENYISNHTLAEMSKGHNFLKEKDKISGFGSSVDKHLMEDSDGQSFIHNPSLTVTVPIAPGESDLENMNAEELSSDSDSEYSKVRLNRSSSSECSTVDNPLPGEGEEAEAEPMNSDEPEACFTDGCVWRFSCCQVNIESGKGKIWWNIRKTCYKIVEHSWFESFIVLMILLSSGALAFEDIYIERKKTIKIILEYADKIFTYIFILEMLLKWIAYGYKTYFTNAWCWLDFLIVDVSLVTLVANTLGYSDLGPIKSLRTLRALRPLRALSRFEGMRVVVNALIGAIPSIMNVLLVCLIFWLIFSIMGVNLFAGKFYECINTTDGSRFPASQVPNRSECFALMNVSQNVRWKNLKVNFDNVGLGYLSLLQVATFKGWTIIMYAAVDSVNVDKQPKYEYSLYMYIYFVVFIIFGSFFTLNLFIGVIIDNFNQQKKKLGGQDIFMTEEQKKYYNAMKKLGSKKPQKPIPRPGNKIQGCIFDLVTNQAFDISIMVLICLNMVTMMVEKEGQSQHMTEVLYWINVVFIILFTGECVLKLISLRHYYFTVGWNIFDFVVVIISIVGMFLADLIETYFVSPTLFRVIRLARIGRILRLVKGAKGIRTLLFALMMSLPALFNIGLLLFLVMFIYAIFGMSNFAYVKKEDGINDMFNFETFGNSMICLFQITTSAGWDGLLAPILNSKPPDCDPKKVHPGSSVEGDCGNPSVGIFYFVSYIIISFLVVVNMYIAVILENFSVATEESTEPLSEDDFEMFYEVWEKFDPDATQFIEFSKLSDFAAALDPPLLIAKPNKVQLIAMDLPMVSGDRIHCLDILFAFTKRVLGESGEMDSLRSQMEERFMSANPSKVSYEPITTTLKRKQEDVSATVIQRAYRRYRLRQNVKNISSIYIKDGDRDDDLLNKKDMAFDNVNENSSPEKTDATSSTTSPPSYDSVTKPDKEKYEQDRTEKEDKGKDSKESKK
T1 sequence (Q9UQD0 whole entry): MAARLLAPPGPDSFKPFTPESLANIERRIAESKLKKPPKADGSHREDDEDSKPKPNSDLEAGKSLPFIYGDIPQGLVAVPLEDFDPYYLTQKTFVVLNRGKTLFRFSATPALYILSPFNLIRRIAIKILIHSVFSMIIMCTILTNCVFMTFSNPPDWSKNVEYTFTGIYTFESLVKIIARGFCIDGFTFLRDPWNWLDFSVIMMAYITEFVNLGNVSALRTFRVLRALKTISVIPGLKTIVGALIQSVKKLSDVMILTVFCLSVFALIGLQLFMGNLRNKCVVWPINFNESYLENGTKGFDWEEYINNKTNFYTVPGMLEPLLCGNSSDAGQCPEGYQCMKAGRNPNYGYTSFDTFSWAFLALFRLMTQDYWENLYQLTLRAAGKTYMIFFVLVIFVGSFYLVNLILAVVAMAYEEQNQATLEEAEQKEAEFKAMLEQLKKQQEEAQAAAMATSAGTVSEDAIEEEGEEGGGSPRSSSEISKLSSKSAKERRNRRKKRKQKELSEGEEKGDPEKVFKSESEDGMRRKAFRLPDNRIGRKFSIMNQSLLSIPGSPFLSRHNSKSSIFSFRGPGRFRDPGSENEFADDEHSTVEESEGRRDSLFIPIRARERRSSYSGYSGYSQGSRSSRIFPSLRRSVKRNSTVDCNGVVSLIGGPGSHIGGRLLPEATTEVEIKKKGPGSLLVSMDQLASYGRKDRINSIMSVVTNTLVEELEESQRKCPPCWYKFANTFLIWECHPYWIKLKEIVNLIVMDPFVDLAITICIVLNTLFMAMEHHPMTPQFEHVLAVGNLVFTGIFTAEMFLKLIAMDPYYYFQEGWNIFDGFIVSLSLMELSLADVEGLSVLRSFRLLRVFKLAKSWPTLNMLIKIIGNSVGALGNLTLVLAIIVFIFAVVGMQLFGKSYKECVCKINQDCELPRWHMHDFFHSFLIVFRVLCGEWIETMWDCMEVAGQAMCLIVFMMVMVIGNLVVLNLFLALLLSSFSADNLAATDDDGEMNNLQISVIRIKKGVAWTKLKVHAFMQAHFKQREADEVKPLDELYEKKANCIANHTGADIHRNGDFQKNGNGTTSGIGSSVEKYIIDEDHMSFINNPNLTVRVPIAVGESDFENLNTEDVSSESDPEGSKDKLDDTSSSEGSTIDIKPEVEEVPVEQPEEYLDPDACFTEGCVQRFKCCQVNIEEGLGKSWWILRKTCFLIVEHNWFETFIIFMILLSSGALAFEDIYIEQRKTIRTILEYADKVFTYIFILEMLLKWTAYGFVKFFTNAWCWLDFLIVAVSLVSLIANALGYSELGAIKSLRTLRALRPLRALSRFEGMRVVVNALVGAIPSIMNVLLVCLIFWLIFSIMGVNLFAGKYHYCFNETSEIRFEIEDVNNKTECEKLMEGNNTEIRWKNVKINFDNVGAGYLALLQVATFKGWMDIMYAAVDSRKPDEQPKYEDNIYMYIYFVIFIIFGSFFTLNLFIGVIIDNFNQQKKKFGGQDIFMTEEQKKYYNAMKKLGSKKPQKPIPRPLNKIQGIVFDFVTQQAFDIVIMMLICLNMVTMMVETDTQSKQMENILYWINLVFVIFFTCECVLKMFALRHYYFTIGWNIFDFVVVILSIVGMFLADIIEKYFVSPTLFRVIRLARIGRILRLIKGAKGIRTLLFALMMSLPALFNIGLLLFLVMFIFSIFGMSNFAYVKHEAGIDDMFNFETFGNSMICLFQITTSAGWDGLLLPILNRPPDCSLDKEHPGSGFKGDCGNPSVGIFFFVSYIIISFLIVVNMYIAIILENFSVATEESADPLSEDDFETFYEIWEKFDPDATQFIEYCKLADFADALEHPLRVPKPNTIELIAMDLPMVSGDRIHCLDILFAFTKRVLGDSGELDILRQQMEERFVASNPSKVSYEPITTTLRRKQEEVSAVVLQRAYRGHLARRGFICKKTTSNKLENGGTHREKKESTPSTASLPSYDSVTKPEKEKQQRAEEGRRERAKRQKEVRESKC
Sequence of NaV1.6 sodium channels (Q9UQD0 whole entry): as above
Sequence of CYP3A4 (P08684 whole entry, species assumed): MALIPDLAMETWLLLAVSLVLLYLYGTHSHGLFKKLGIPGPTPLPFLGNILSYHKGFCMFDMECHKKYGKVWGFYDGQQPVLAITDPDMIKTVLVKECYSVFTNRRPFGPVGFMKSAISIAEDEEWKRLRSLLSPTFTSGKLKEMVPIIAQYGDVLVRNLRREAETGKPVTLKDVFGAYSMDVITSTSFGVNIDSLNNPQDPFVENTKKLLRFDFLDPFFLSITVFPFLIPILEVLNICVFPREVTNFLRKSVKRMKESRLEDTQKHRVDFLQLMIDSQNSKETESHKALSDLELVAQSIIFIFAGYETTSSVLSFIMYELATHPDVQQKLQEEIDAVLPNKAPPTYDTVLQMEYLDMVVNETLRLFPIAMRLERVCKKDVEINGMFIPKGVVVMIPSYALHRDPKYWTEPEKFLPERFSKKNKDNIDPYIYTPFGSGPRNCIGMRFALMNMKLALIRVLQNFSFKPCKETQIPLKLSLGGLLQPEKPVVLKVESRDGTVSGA

| SMILES | inhibition at 100 µM [1] | IC50 [2] | shift of half maximal voltage for inactivation (V1/2) compared to control ([3]; 10 μM) | use-dependent block [3] | IC50 [4] | IC50 [6] | IC50 [7] | IC50 [9] | IC50 [5] | IC50 [8] | seizure suppression [10] | ED50 [14] | ED50 [15] | ED50 [16] | Tox [17] | other results |
| --- | --- | --- | --- | --- | --- | --- | --- | --- | --- | --- | --- | --- | --- | --- | --- | --- |
| c1ccc(-c2c[nH]c(-c3ccccc3)n2)cc1 [MV1115] |  |  |  |  |  |  |  |  |  |  |  | 61.7 mg/kg | 160 mg/kg | 47.2 mg/kg | 126 mg/kg | IC50 ([1]; comparison compounds, read-out: IC50 (NaV1.6)): 32 µM; solubility ([11]; pH 3, aqueous buffer): 237 µM (≈ 52.2 µg/mL); solubility ([11]; pH 7.4, aqueous buffer): 175 µM (≈ 38.5 µg/mL); recovery at 24 h [12]: 94%; recovery at 1 hr [13]: 87% |
| COc1ccc(-c2nc(-c3ccccc3)c[nH]2)cc1 [MV1118] |  |  |  |  |  |  |  |  |  |  |  | 46.8 mg/kg | 142 mg/kg | 52.2 mg/kg | 223 mg/kg |  |

Further lines, with some results ahead:

| inhibition at 100 µM [1] | IC50 [2] | shift of half maximal voltage for inactivation (V1/2) compared to control ([3]; 10 μM) | use-dependent block [3] | IC50 [4] | IC50 [6] | IC50 [7] | IC50 [9] | SMILES | IC50 [5] | IC50 [8] | seizure suppression [10] | ED50 [14] | ED50 [15] | ED50 [16] | Tox [17] | other results |
| --- | --- | --- | --- | --- | --- | --- | --- | --- | --- | --- | --- | --- | --- | --- | --- | --- |
| 100% | 12 µM | −10.9 mV | profound use-dependent block | 2070 nM | 5.72 µM | 3320 nM | 7.95 µM | Cc1nc(-c2cccc(C(F)(F)F)c2)[nH]c1-c1ccccc1 [MV1504, 4-methyl-5-phenyl-2-[3-(trifluoromethyl)phenyl]-1H-imidazole hydrochloride] | 4.32 µM | 13.3 µM | suppressed seizures |  |  |  |  |  |
| 95% | 1.2 µM |  |  | 1610 nM | 4.76 µM | 749 nM | 3.88 µM | Cc1nc(-c2ccc(Cl)cc2)[nH]c1-c1ccccc1 [MV1502, 2-(4-chlorophenyl)-4-methyl-5-phenyl-1H-imidazole hydrochloride] | 4.89 µM | 12.7 µM | suppressed seizures |  |  |  |  | shift of half maximal voltage for inactivation (V1/2) compared to control ([3]; 1 μM): −9.3 mV |
| 100% | 5.4 µM | −12.7 mV | profound use-dependent block | 1590 nM | 5.22 µM | 2720 nM | 8.04 µM | Cc1nc(-c2cccc(Cl)c2)[nH]c1-c1ccccc1 [MV1505, 2-(3-chlorophenyl)-4-methyl-5-phenyl-1H-imidazole] | 3.64 µM | 10 µM | suppressed seizures |  |  |  |  |  |
